Laboratory results: publication PMC8222254, “Self-assembly of an anion receptor with metal-dependent kinase inhibition and potent in vitro anti-cancer properties” (Nature Communications, 2021)
Several values for one entry are separate records, joined by “and”; a condition that tells them apart may be missing. Equal values may be shown once. Read-outs that look alike come from different tables or passages of the source.

Key:
[1] = system: NP1 adult brain neural progenitor cells; assay: Chemosensitivity, 96 h continuous exposure, MTT assay; assay type: cell-based, human
How it was run: (§1)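 Cells were seeded overnight at 37 °C (2 × 10^3/well; GBM1 at 3 × 10^3/well on poly-L-ornithine/laminin in Neurobasal with hFGF/rhEGF), then exposed to compound concentration ranges for 96 h. Viability was read by MTT (4 h, formazan in DMSO, A540) and IC50 taken from dose–response curves.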

[2] = system: GBM1 glioblastoma cancer stem cell model; assay: as above; assay type: cell-based, human; conditions: for IC50: GBM1, 96 h, MTT; for Selectivity Index using the NPI non-cancer cell line: IC50 NP1 / IC50 GBM1; for SI (ARPE19): mean IC50 ARPE-19 / mean IC50 GBM1; for SI (MCF10A): mean IC50 MCF10A / mean IC50 GBM1; for SI (NPI): mean IC50 NP1 / mean IC50 GBM1;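 for SI (NPI): adult human brain neural progenitor non-cancer cells from an epilepsy surgery patient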;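 for Selectivity Index using the NPI non-cancer cell line: adult human brain neural progenitor non-cancer cells from an epilepsy surgery patient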
How it was run: as §1

[3] = 31P NMR study of hydrolysis of phosphate esters and phosphorylated amino acids
Experimental: For ^1H NMR studies, reaction of [L2Zn3]^6+ with either Na2O3POPh and Bu4NH2PO4 was carried out in 10% D2O in CD3CN. The NMR solutions were prepared by dissolving the ligand L and Zn(C2H3O2)2 (in a ratio of 1:1.5) in CD3CN (600 µL). The relevant anion (0.5 equivalents w.r.t ligand) was dissolved in D2O (60 µL) and these solutions were then combined. Heating of the sample was carried out @ 80 °C in a water bath for the specified amount of time. For the ^31P NMR studies solutions were prepared by dissolving the ligand L and Zn(C2H3O2)2 (in a ratio of 1:1.5) in d6-DMSO (200 µL). The anion (0.5 equivalents w.r.t ligand) was dissolved in HEPES (600 µL, 60 mmol @ pH 7.4) and these solutions were then combined. Where required heating of the sample was carried out by incubating the sample @ 37 °C and/or a further 2 h @ 80 °C in a water bath.

[4] = NP1, 96 h, MTT, individual run, read-out: IC50 values for each replicate
[5] = NP1, 96 h, MTT, mean of at least 3 independent experiments, read-out: Mean IC50
[6] = NP1 non-cancer, read-out: Mean IC50 values
[7] = individual run, read-out: IC50 values for each replicate
[8] = mean of at least 3 independent experiments, read-out: Mean IC50

In the case of `[Cu+2].[Cu+2].[Cu+2].c1ccc(-c2csc(NCCN(CCNc3nc(-c4ccccn4)cs3)CCNc3nc(-c4ccccn4)cs3)n2)nc1.c1ccc(-c2csc(NCCN(CCNc3nc(-c4ccccn4)cs3)CCNc3nc(-c4ccccn4)cs3)n2)nc1` [[L2Cu3]6+], the IC50 [1, 4] is reported as 39.3 µM and 45.1 µM and 44.8 µM, the IC50 [1, 5] is reported as 43.1 µM and the IC50 [1, 6] is reported as 43.1 µM. For the same compound, the IC50 [2, 7] was 5.37 µM and 4.48 µM and 5.08 µM, the IC50 ([2]; mean of at least 3 independent experiments, listed as [L2Cu3]^6+, read-out: Mean IC50) was greater than 1 µM and the IC50 [2, 8] was 4.97 µM. For the same compound, the “Selectivity Index using the NPI non-cancer cell line” value [2] was 8.67, the “SI (ARPE19)” value [2] was 10.59 and the “SI (MCF10A)” value [2] was 9.71. For the same compound, the “SI (NPI)” value [2] was 8.67.
For `CC(=O)[O-].CC(=O)[O-].CC(=O)[O-].CC(=O)[O-].CC(=O)[O-].CC(=O)[O-].[Zn+2].[Zn+2].[Zn+2].c1ccc(-c2csc(NCCN(CCNc3nc(-c4ccccn4)cs3)CCNc3nc(-c4ccccn4)cs3)n2)nc1.c1ccc(-c2csc(NCCN(CCNc3nc(-c4ccccn4)cs3)CCNc3nc(-c4ccccn4)cs3)n2)nc1` [[L2Zn3]6+], the IC50 [1, 4] was 5.77 µM and 8.9 µM and 8.86 µM, the IC50 [1, 5] was 7.78 µM and the IC50 [1, 6] was 7.78 µM. The IC50 [2, 7] was 3.23 µM and 4.44 µM and 4.32 µM, the IC50 ([2]; mean of at least 3 independent experiments, listed as [L2Zn3]^6+, read-out: Mean IC50) was greater than 1 µM and the IC50 [2, 8] was 4 µM. The “Selectivity Index using the NPI non-cancer cell line” value [2] was 1.95, the “SI (ARPE19)” value [2] was 39.31 and the “SI (MCF10A)” value [2] was 40.41. The “SI (NPI)” value [2] was 1.95, the “dephosphorylation of serine-OPO3 2- (31P NMR)” value ([3]; 37 °C) was “completion after 48 h” and the “dephosphorylation of tyrosine-OPO3 2- (31P NMR)” value ([3]; 37 °C) was “completion after 48 h”. For the same compound, the “dephosphorylation of threonine-OPO3 2- (31P NMR)” value ([3]; 37 °C, compared with serine and tyrosine phosphate) was “much slower”, the “hydrolysis of phenyl phosphate dianion (31P NMR)” value ([3]; after 44 h at 37 °C, 25% DMSO / HEPES) was “virtually no signal” and the “hydrolysis of 4-nitrophenyl phosphate (31P NMR)” value ([3]; following mixing) was “almost immediate hydrolysis”.
